Measurements reported in the supplement of paper PMC10307832.

What was measured:
Experiment in all cases: relative viability (nuclei count vs DMSO), 5 days (fraction); higher = more cells survive
17-AAG + Olaparib = compound: C=CCNC1=C2C[C@@H](C)C[C@H](OC)[C@H](O)[C@@H](C)/C=C(\C)[C@H](OC(N)=O)[C@@H](OC)/C=C\C=C(/C)C(=O)NC(=CC1=O)C2=O [17-AAG] + O=C(c1cc(Cc2n[nH]c(=O)c3ccccc23)ccc1F)N1CCN(C(=O)C2CC2)CC1 [Olaparib] (partner 8 µM)
Method in brief: (§1)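 Relative viability equals treated-well nuclei counts divided by vehicle-well nuclei counts. Counts came from 4× images of lung cancer cell lines grown in 1536-well plates for 5 days after pin-tool dosing on the day after seeding. Dosing used one drug alone or a fixed anchor-drug dose plus five library-drug doses (not always all listed) in √10 steps, and values are medians of duplicate plates.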

17-AAG + Trametinib = compound: C=CCNC1=C2C[C@@H](C)C[C@H](OC)[C@H](O)[C@@H](C)/C=C(\C)[C@H](OC(N)=O)[C@@H](OC)/C=C\C=C(/C)C(=O)NC(=CC1=O)C2=O [17-AAG] + CC(=O)Nc1cccc(-n2c(=O)n(C3CC3)c(=O)c3c(Nc4ccc(I)cc4F)n(C)c(=O)c(C)c32)c1 [Trametinib] (partner 0.02 µM)
Method in brief: as §1

17-AAG + Pictilisib = compound: C=CCNC1=C2C[C@@H](C)C[C@H](OC)[C@H](O)[C@@H](C)/C=C(\C)[C@H](OC(N)=O)[C@@H](OC)/C=C\C=C(/C)C(=O)NC(=CC1=O)C2=O [17-AAG] + CS(=O)(=O)N1CCN(Cc2cc3nc(-c4cccc5[nH]ncc45)nc(N4CCOCC4)c3s2)CC1 [Pictilisib] (partner 1 µM)
Method in brief: as §1

17-AAG + Bortezomib = compound: C=CCNC1=C2C[C@@H](C)C[C@H](OC)[C@H](O)[C@@H](C)/C=C(\C)[C@H](OC(N)=O)[C@@H](OC)/C=C\C=C(/C)C(=O)NC(=CC1=O)C2=O [17-AAG] + CC(C)C[C@H](NC(=O)[C@H](Cc1ccccc1)NC(=O)c1cnccn1)B(O)O [Bortezomib] (partner 0.002 µM)
Method in brief: as §1

Cell Line | relative viability (17-AAG + Olaparib; first compound 0.00128 µM) | relative viability (17-AAG + Olaparib; first compound 0.004048 µM) | relative viability (17-AAG + Olaparib; first compound 0.0128 µM) | relative viability (17-AAG + Olaparib; first compound 0.04048 µM) | relative viability (17-AAG + Olaparib; first compound 0.128 µM) | relative viability (17-AAG + Trametinib; first compound 0.00128 µM) | relative viability (17-AAG + Trametinib; first compound 0.004048 µM) | relative viability (17-AAG + Trametinib; first compound 0.0128 µM) | relative viability (17-AAG + Trametinib; first compound 0.04048 µM) | relative viability (17-AAG + Trametinib; first compound 0.128 µM) | relative viability (17-AAG + Pictilisib; first compound 0.00128 µM) | relative viability (17-AAG + Pictilisib; first compound 0.004048 µM) | relative viability (17-AAG + Pictilisib; first compound 0.0128 µM) | relative viability (17-AAG + Pictilisib; first compound 0.04048 µM) | relative viability (17-AAG + Pictilisib; first compound 0.128 µM) | relative viability (17-AAG + Bortezomib; first compound 0.00128 µM) | relative viability (17-AAG + Bortezomib; first compound 0.004048 µM) | relative viability (17-AAG + Bortezomib; first compound 0.0128 µM) | relative viability (17-AAG + Bortezomib; first compound 0.04048 µM) | relative viability (17-AAG + Bortezomib; first compound 0.128 µM)
NCI-H1993 | 1.16 | 0.949 | 0.98 | 0.37 | 0.299 | 0.61 | 0.464 | 0.49 | 0.313 | 0.387 | 0.797 | 0.806 | 0.667 | 0.6 | 0.638 | 1.04 | 1.25 | 0.609 | 0.454 | 0.369
NCI-H2009 | 0.699 | 0.712 | 0.7 | 0.295 | 0.0798 | 0.276 | 0.269 | 0.252 | 0.218 | 0.0853 | 0.744 | 0.829 | 0.744 | 0.277 | 0.091 | 0.974 | 0.995 | 0.917 | 0.815 | 0.142
NCI-H2023 | 0.472 | 0.163 | 0.0796 | 0.0702 | 0.0752 | 0.557 | 0.266 | 0.0867 | 0.0826 | 0.0692 | 0.292 | 0.173 | 0.0917 | 0.0989 | 0.0852 | 0.886 | 0.878 | 0.138 | 0.0901 | 0.0776
NCI-H2085 | 0.869 | 0.76 | 0.78 | 0.748 | 0.674 | 0.608 | 0.607 | 0.604 | 0.594 | 0.314 | 0.474 | 0.416 | 0.448 | 0.475 | 0.529 | 1.08 | 1.02 | 1.11 | 1.04 | 0.714
